Here are results for 25 molecules from patent US12479849B2, “EGFR inhibitors for the treatment of cancer” (Hoffmann-La Roche Inc., priority 2019, dated 2025).

Each structure is given as a SMILES string.

T1 sequence (P00533 25-1210 T790M/C797S/L858R): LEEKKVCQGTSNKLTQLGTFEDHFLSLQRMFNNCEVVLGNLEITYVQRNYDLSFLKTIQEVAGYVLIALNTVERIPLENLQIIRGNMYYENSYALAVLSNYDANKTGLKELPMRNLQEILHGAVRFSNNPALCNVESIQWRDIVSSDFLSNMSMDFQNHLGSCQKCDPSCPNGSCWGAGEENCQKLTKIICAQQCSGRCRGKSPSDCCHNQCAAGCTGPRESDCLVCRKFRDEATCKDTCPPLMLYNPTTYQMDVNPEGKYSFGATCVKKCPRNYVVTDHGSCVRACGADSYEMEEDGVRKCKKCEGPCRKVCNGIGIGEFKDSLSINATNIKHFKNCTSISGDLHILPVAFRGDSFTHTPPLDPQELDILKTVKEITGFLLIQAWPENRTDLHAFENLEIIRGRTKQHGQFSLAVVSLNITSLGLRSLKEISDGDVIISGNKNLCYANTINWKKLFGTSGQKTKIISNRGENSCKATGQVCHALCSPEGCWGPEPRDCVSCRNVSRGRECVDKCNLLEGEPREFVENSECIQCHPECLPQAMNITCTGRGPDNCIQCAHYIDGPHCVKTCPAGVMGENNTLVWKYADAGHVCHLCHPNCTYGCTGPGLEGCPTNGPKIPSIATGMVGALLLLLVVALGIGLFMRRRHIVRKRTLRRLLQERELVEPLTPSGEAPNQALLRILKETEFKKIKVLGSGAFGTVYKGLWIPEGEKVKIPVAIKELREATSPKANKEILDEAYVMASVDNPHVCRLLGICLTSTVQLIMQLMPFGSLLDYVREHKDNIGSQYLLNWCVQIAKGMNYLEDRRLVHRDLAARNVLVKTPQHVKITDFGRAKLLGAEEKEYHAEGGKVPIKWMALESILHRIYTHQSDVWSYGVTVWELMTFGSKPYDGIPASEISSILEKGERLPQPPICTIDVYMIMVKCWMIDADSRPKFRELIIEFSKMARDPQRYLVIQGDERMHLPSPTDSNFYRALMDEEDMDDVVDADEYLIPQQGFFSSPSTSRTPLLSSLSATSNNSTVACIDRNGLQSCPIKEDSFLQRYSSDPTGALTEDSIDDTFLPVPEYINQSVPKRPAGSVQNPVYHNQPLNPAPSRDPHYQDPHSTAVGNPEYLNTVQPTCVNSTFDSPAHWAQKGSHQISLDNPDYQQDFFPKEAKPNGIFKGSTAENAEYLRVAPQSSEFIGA

This assay concerns the target T1, EGFR TMLRCS (Homo sapiens, UniProt P00533, C797S/L858R/T790M).
T1 construct: host or cells: BaF3-TMLRCS (Ba/F3 cells, kept under puromycin selection)
Description: HTRF Phospho EGFR TMLRCS Assay (Cellular). In kind it is cell-based. The settings on record: BaF3-TMLRCS cell line, 4 hours incubation, Phospho-EGFR HTRF readout. The procedure, abridged:
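BaF3 cells expressing EGFR L858R/T790M/C797S, 20000/well, treated with compound in dose response for 4 h at 37 °C, 5% CO2. After lysis, phospho-EGFR detected by HTRF with cryptate and d2 antibodies over 4 h at room temperature. Signal taken as 665/616 nm ratio ×10000, normalized.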
A general note: In TR-FRET formats the signal depends on donor and acceptor labels being close together.
The molecule `CCc1cc(-c2cc(Cl)c3cn(C(C(=O)Nc4nccs4)c4ncn5c4C[C@@H](F)C5)nc3c2Cl)ccc1OCCN(C)C` (stereo partly drawn) [Example 40, 2-(4,7-Dichloro-6-(4-(2-(dimethylamino)ethoxy)-3-ethylphenyl)-2H-indazol-2-yl)-2-((R)-6-fluoro-6,7-dihydro-5H-pyrrolo[1,2-c]imidazol-1-yl)-N-(thiazol-2-yl)acetamide] gave an IC50 of 8 nM. For `O=C(Nc1nccs1)C(c1ncn2c1C[C@@H](F)C2)n1cc2c(Cl)cc(-c3ccc(OCCN4CCCC4)cc3)c(Cl)c2n1` (stereo partly drawn) [Example 42, 2-(4,7-Dichloro-6-(4-(2-(pyrrolidin-1-yl)ethoxy)phenyl)-2H-indazol-2-yl)-2-((R)-6-fluoro-6,7-dihydro-5H-pyrrolo[1,2-c]imidazol-1-yl)-N-(thiazol-2-yl)acetamide] the value was 12 nM; for `CCN1C[C@H]2CC(c3ccc(-c4cc(Cl)c5cn(C(C(=O)Nc6nccs6)c6ncn7c6C[C@@H](F)C7)nc5c4Cl)cc3)C[C@H]2C1` (stereo partly drawn) [Example 43, 2-(4,7-Dichloro-6-(4-((3aR,6aS)-2-ethyloctahydrocyclopenta[c]pyrrol-5-yl)phenyl)-2H-indazol-2-yl)-2-((R)-6-fluoro-6,7-dihydro-5H-pyrrolo[1,2-c]imidazol-1-yl)-N-(thiazolyl)acetamide], 11 nM; for `CC(F)CN1CCC(c2ccc(-c3cc(Cl)c4cn(C(C(=O)Nc5nccs5)c5ncn6c5C[C@@H](F)C6)nc4c3Cl)cc2)CC1` (stereo partly drawn) [Example 44, 2-(4,7-Dichloro-6-(4-(1-(2-fluoropropyl)piperidin-4-yl)phenyl)-2H-indazol-2-yl)-2-((R)-6-fluoro-6,7-dihydro-5H-pyrrolo[1,2-c]imidazol-1-yl)-N-(thiazol-2-yl)acetamide], 13 nM. Next, `COCCN1CCC(c2ccc(-c3cc(Cl)c4cn(C(C(=O)Nc5nccs5)c5ncn6c5C[C@@H](F)C6)nc4c3Cl)cc2)CC1` (stereo partly drawn) [Example 45, 2-(4,7-Dichloro-6-(4-(1-(2-methoxyethyl)piperidin-4-yl)phenyl)-2H-indazol-2-yl)-2-((R)-6-fluoro-6,7-dihydro-5H-pyrrolo[1,2-c]imidazol-1-yl)-N-(thiazol-2-yl)acetamide]: 4 nM; `O=C(Nc1nccs1)C(c1ncn2c1C[C@@H](F)C2)n1cc2c(Cl)cc(-c3ccc(CN4CCC(F)(CO)CC4)cc3)c(Cl)c2n1` (stereo partly drawn) [Example 65, 2-(4,7-Dichloro-6-(4-((4-fluoro-4-(hydroxymethyl)piperidin-1-yl)methyl)phenyl)-2H-indazol-2-yl)-2-((R)-6-fluoro-6,7-dihydro-5H-pyrrolo[1,2-c]imidazol-1-yl)-N-(thiazol-2-yl)acetamide]: 4 nM; `O=C(Nc1nccs1)C(c1ncn2c1C[C@@H](F)C2)n1cc2c(Cl)cc(-c3ccc(N4CC5(CCNCC5)C4)cc3)c(Cl)c2n1` (stereo partly drawn) [Example 69, 2-(6-(4-(2,7-Diazaspiro[3.5]nonan-2-yl)phenyl)-4,7-dichloro-2H-indazol-2-yl)-2-((R)-6-fluoro-6,7-dihydro-5H-pyrrolo[1,2-c]imidazol-1-yl)-N-(thiazol-2-yl)acetamide]: 4 nM. Molecule `CCN1CCCC2(C1)CN(c1ccc(-c3cc(Cl)c4cn(C(C(=O)Nc5nccs5)c5ncn6c5C[C@@H](F)C6)nc4c3Cl)cc1)C2` (stereo partly drawn) [Example 73, 2-(4,7-Dichloro-6-(4-(6-ethyl-2,6-diazaspiro[3.5]nonan-2-yl)phenyl)-2H-indazol-2-yl)-2-((R)-6-fluoro-6,7-dihydro-5H-pyrrolo[1,2-c]imidazol-1-yl)-N-(thiazol-2-yl)acetamide] showed an IC50 of 10 nM. For `O=C(Nc1nccs1)C(c1ncn2c1C[C@@H](F)C2)n1cc2c(Cl)cc(-c3ccc(CN4CCC(CCO)CC4)cc3)c(Cl)c2n1` (stereo partly drawn) [Example 78, 2-(4,7-Dichloro-6-(4-((4-(2-hydroxyethyl)piperidin-1-yl)methyl)phenyl)-2H-indazol-2-yl)-2-((R)-6-fluoro-6,7-dihydro-5H-pyrrolo[1,2-c]imidazol-1-yl)-N-(thiazol-2-yl)acetamide] the value was 3 nM; for `CN(CCN1CCC(CO)CC1)c1ccc(-c2cc(Cl)c3cn(C(C(=O)Nc4nccs4)c4ncn5c4C[C@@H](F)C5)nc3c2Cl)cc1` (stereo partly shown) [Example 79], 7 nM; for `CN(CCN1CCC(O)CC1)c1ccc(-c2cc(Cl)c3cn(C(C(=O)Nc4nccs4)c4ncn5c4C[C@@H](F)C5)nc3c2Cl)cc1` (stereo partly shown) [Example 80], 8 nM.

Regarding `CCN1C[C@@H]2CN(c3ccc(-c4cc(Cl)c5cn(C(C(=O)Nc6nccs6)c6ncn7c6C[C@@H](F)C7)nc5c4Cl)cc3)C[C@@H]2C1` (stereo partly drawn) [Example 81, 2-(4,7-Dichloro-6-(4-((3aR,6aS)-5-ethylhexahydropyrrolo[3,4-c]pyrrol-2(1H)-yl)phenyl)-2H-indazol-2-yl)-2-((R)-6-fluoro-6,7-dihydro-5H-pyrrolo[1,2-c]imidazol-1-yl)-N-(thiazol-2-yl)acetamide], the IC50 stood at 9 nM. Next, `CCN1CC2(CCCN(c3ccc(-c4cc(Cl)c5cn(C(C(=O)Nc6nccs6)c6ncn7c6C[C@@H](F)C7)nc5c4Cl)cc3)C2)C1` (stereo partly shown) [Example 82]: 11 nM.

The molecule `CCN1CC(c2ccc(-c3cc(Cl)c4cn(C(C(=O)Nc5nccs5)c5ncn6c5C[C@@H](F)C6)nc4c3Cl)cc2)C1` (stereo partly drawn) [Example 83, 2-(4,7-Dichloro-6-(4-(1-ethylazetidin-3-yl)phenyl)-2H-indazol-2-yl)-2-((R)-6-fluoro-6,7-dihydro-5H-pyrrolo[1,2-c]imidazol-1-yl)-N-(thiazol-2-yl)acetamide] returned an IC50 of 10 nM. This IC50 and that of the molecule before are within 1.5-fold of each other. For the molecule `O=C(Nc1nccs1)C(c1ncn2c1C[C@@H](F)C2)n1cc2c(Cl)cc(-c3ccc(C4CN(CCO)C4)cc3)c(Cl)c2n1` (stereo partly drawn) [Example 84, 2-(4,7-Dichloro-6-(4-(1-(2-hydroxyethyl)azetidin-3-yl)phenyl)-2H-indazol-2-yl)-2-((R)-6-fluoro-6,7-dihydro-5H-pyrrolo[1,2-c]imidazol-1-yl)-N-(thiazol-2-yl)acetamide], the IC50 is 12 nM.

The molecule `CN1CCC(Oc2ccc(-c3cc(Cl)c4cn(C(C(=O)Nc5nccs5)c5ncn6c5C[C@@H](F)C6)nc4c3Cl)cc2)CC1` (stereo partly drawn) [Example 85, 2-(4,7-Dichloro-6-(4-((l-methylpiperidin-4-yl)oxy)phenyl)-2H-indazol-2-yl)-2-((R)-6-fluoro-6,7-dihydro-5H-pyrrolo[1,2-c]imidazol-1-yl)-N-(thiazol-2-yl)acetamide] came in with an IC50 of 4 nM. Next, `O=C(Nc1nccs1)C(c1ncn2c1C[C@@H](F)C2)n1cc2c(Cl)cc(-c3ccc(OCCN4CC5(CC(O)C5)C4)cc3)c(Cl)c2n1` (stereo partly drawn) [Example 88, 2-(4,7-Dichloro-6-(4-(2-(6-hydroxy-2-azaspiro[3.3]heptan-2-yl)ethoxy)phenyl)-2H-indazol-2-yl)-2-((R)-6-fluoro-6,7-dihydro-5H-pyrrolo[1,2-c]imidazol-1-yl)-N-(thiazol-2-yl)acetamide]: 7 nM; `CN(CCN1CC(CO)C1)c1ccc(-c2cc(Cl)c3cn(C(C(=O)Nc4nccs4)c4ncn5c4C[C@@H](F)C5)nc3c2Cl)cc1` (stereo partly shown) [Example 89]: 10 nM; `CN(CCN1CC(O)C1)c1ccc(-c2cc(Cl)c3cn(C(C(=O)Nc4nccs4)c4ncn5c4C[C@@H](F)C5)nc3c2Cl)cc1` (stereo partly shown) [Example 90]: 12 nM.

As to `O=C(Nc1nccs1)C(c1ncn2c1C[C@@H](F)C2)n1cc2c(Cl)cc(-c3ccc(N4CCN5C[C@H](O)C[C@H]5C4)cc3)c(Cl)c2n1` (stereo partly drawn) [Example 93, 2-(4,7-Dichloro-6-(4-((7R,8aS)-7-hydroxyhexahydropyrrolo[1,2-a]pyrazin-2(1H)-yl)phenyl)-2H-indazol-2-yl)-2-((R)-6-fluoro-6,7-dihydro-5H-pyrrolo[1,2-c]imidazol-1-yl)-N-(thiazol-2-yl)acetamide], the IC50 came out at 6 nM. Next, `O=C(Nc1nccs1)C(c1ncn2c1CCC2)n1cc2c(Cl)cc(-c3ccc(C4CCN(CCF)CC4)cc3)c(Cl)c2n1` (stereo not shown) [Example 103, 2-(4,7-Dichloro-6-(4-(1-(2-fluoroethyl)piperidin-4-yl)phenyl)-2H-indazol-2-yl)-2-(6,7-dihydro-5H-pyrrolo[1,2-c]imidazol-1-yl)-N-(thiazol-2-yl)acetamide]: 20 nM.

In turn, `CCN1CCC(c2ccc(-c3cc(Cl)c4cn(C(C(=O)Nc5nccs5)c5ncn6c5CCC6)nc4c3Cl)cc2)CC1` (stereo not shown) [Example 104, 2-(4,7-Dichloro-6-(4-(1-ethylpiperidin-4-yl)phenyl)-2H-indazol-2-yl)-2-(6,7-dihydro-5H-pyrrolo[1,2-c]imidazol-1-yl)-N-(thiazol-2-yl)acetamide] returned an IC50 of 12 nM. Against the preceding molecule, the IC50 is about 1.7-fold lower.

Take `Cc1c(-c2ccc(N3CCOCC3)cc2)cc(Cl)c2cn(C(C(=O)Nc3nccs3)c3ncn4c3C[C@@H](F)C4)nc12` (stereo partly drawn) [Example 105, 2-(4-Chloro-7-methyl-6-(4-morpholinophenyl)-2H-indazol-2-yl)-2-((R)-6-fluoro-6,7-dihydro-5H-pyrrolo[1,2-c]imidazol-1-yl)-N-(thiazol-2-yl)acetamide]: half-maximal inhibition (IC50) required 8 nM.

`Cc1cc(-c2ccc(N3CCOCC3)cc2)c(C)c2nn(C(C(=O)Nc3nccs3)c3ncn4c3C[C@@H](F)C4)cc12` (stereo partly drawn) [Example 118, 2-(4,7-Dimethyl-6-(4-morpholinophenyl)-2H-indazol-2-yl)-2-((R)-6-fluoro-6,7-dihydro-5H-pyrrolo[1,2-c]imidazol-1-yl)-N-(thiazol-2-yl)acetamide] yielded an IC50 of 7 nM. `CCN1CCC(c2ccc(-c3cc(C)c4cn(C(C(=O)Nc5nccs5)c5ncn6c5C[C@@H](F)C6)nc4c3C)cc2)CC1` (stereo partly drawn) [Example 120, 2-(6-(4-(1-Ethylpiperidin-4-yl)phenyl)-4,7-dimethyl-2H-indazol-2-yl)-2-((R)-6-fluoro-6,7-dihydro-5H-pyrrolo[1,2-c]imidazol-1-yl)-N-(thiazol-2-yl)acetamide] displayed an IC50 of 15 nM.

In general, IC50 refers to the concentration needed to halve the response being measured.
